Assay results taken from PubChem BioAssay (NCI).
Several values for one entry are separate records, joined by “and”; a condition that tells them apart may be missing. Identical values can stand only once.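 Each compound was tested at five concentrations against cells in 96-well plates for 48 hours. Abbreviation: GI50, concentration required for 50% inhibition of growth. TGI: concentration producing complete growth inhibition.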

Key:
Test in all cases: growth of human tumour cells (NCI), 48 h; in the data active = GI50 below about 0.43 µM; inactive = the rest
786-0 renal = system: 786-0 renal
A549 NSCLC = system: A549 NSCLC
ACHN renal = system: ACHN renal
CAKI-1 renal = system: CAKI-1 renal
CCRF-CEM leukemia = system: CCRF-CEM leukemia
COLO 205 colon = system: COLO 205 colon
DLD-1 colon = system: DLD-1 colon
DMS 114 small cell lung = system: DMS 114 small cell lung
DMS 273 small cell lung = system: DMS 273 small cell lung
HCC-2998 colon = system: HCC-2998 colon
HCT-116 colon = system: HCT-116 colon
HCT-15 colon = system: HCT-15 colon
HL-60(TB) leukemia = system: HL-60(TB) leukemia
HOP-62 NSCLC = system: HOP-62 NSCLC
HOP-92 NSCLC = system: HOP-92 NSCLC
HT29 colon = system: HT29 colon
IGROV1 ovarian = system: IGROV1 ovarian
K-562 leukemia = system: K-562 leukemia
KM12 colon = system: KM12 colon
KM20L2 colon = system: KM20L2 colon
LXFL 529 NSCLC = system: LXFL 529 NSCLC
M14 melanoma = system: M14 melanoma
M19-MEL melanoma = system: M19-MEL melanoma
MALME-3M melanoma = system: MALME-3M melanoma
MOLT-4 leukemia = system: MOLT-4 leukemia
NCI-H226 lung = system: NCI-H226 lung
NCI-H23 lung = system: NCI-H23 lung
NCI-H460 lung = system: NCI-H460 lung
NCI-H522 lung = system: NCI-H522 lung
OVCAR-3 ovarian = system: OVCAR-3 ovarian
OVCAR-4 ovarian = system: OVCAR-4 ovarian
OVCAR-5 ovarian = system: OVCAR-5 ovarian
OVCAR-8 ovarian = system: OVCAR-8 ovarian
RPMI-8226 leukemia = system: RPMI-8226 leukemia
SF-268 CNS = system: SF-268 CNS
SF-295 CNS = system: SF-295 CNS
SF-539 CNS = system: SF-539 CNS
SK-MEL-2 melanoma = system: SK-MEL-2 melanoma
SK-MEL-28 melanoma = system: SK-MEL-28 melanoma
SK-MEL-5 melanoma = system: SK-MEL-5 melanoma
SNB-19 CNS = system: SNB-19 CNS
SNB-75 CNS = system: SNB-75 CNS
SR leukemia = system: SR leukemia
SW-620 colon = system: SW-620 colon
TK-10 renal = system: TK-10 renal
U251 CNS = system: U251 CNS
UACC-257 melanoma = system: UACC-257 melanoma
UACC-62 melanoma = system: UACC-62 melanoma
UO-31 renal = system: UO-31 renal
XF 498 CNS = system: XF 498 CNS
A498 renal = system: A498 renal
EKVX NSCLC = system: EKVX NSCLC
LOX IMVI melanoma = system: LOX IMVI melanoma
RXF 393 renal = system: RXF 393 renal
SK-OV-3 ovarian = system: SK-OV-3 ovarian
SN12C renal = system: SN12C renal
SNB-78 CNS = system: SNB-78 CNS

CC[N+](CC)(CC)Cc1cc2ccccc2n1C(=O)OC
> 100 µM: TGI (786-0 renal) | TGI (A549 NSCLC) | TGI (ACHN renal) | TGI (CAKI-1 renal) | TGI (CCRF-CEM leukemia) | TGI (COLO 205 colon) | TGI (DLD-1 colon) | TGI (DMS 114 small cell lung) | TGI (DMS 273 small cell lung) | TGI (HCC-2998 colon) | TGI (HCT-116 colon) | TGI (HCT-15 colon) | TGI (HL-60(TB) leukemia) | TGI (HOP-62 NSCLC) | TGI (HOP-92 NSCLC) | TGI (HT29 colon) | TGI (IGROV1 ovarian) | TGI (K-562 leukemia) | TGI (KM12 colon) | TGI (KM20L2 colon) | TGI (LXFL 529 NSCLC) | TGI (M14 melanoma) | TGI (M19-MEL melanoma) | TGI (MALME-3M melanoma) | TGI (MOLT-4 leukemia) | TGI (NCI-H226 lung) | TGI (NCI-H23 lung) | TGI (NCI-H460 lung) | TGI (NCI-H522 lung) | TGI (OVCAR-3 ovarian) | TGI (OVCAR-4 ovarian) | TGI (OVCAR-5 ovarian) | TGI (OVCAR-8 ovarian) | TGI (RPMI-8226 leukemia) | TGI (SF-268 CNS) | TGI (SF-295 CNS) | TGI (SF-539 CNS) | TGI (SK-MEL-2 melanoma) | TGI (SK-MEL-28 melanoma) | TGI (SK-MEL-5 melanoma) | TGI (SNB-19 CNS) | TGI (SNB-75 CNS) | TGI (SR leukemia) | TGI (SW-620 colon) | TGI (TK-10 renal) | TGI (U251 CNS) | TGI (UACC-257 melanoma) | TGI (UACC-62 melanoma) | TGI (UO-31 renal) | TGI (XF 498 CNS)

CN(C)C(=O)Nc1c([N+](=O)[O-])cc(C(F)(F)F)cc1[N+](=O)[O-]
77.5 µM: TGI (NCI-H522 lung)
53.7 µM: TGI (OVCAR-3 ovarian)
59.3 µM: TGI (KM20L2 colon)
48 µM: TGI (HL-60(TB) leukemia)
69.3 µM: TGI (COLO 205 colon)
80.8 µM: TGI (XF 498 CNS)
> 100 µM: TGI (786-0 renal) | TGI (A498 renal) | TGI (A549 NSCLC) | TGI (ACHN renal) | TGI (CAKI-1 renal) | TGI (CCRF-CEM leukemia) | TGI (DMS 273 small cell lung) | TGI (EKVX NSCLC) | TGI (HCT-116 colon) | TGI (HCT-15 colon) | TGI (HOP-62 NSCLC) | TGI (HOP-92 NSCLC) | TGI (HT29 colon) | TGI (IGROV1 ovarian) | TGI (K-562 leukemia) | TGI (KM12 colon) | TGI (LOX IMVI melanoma) | TGI (LXFL 529 NSCLC) | TGI (M14 melanoma) | TGI (MOLT-4 leukemia) | TGI (NCI-H226 lung) | TGI (NCI-H23 lung) | TGI (NCI-H460 lung) | TGI (OVCAR-4 ovarian) | TGI (OVCAR-5 ovarian) | TGI (OVCAR-8 ovarian) | TGI (RPMI-8226 leukemia) | TGI (RXF 393 renal) | TGI (SF-268 CNS) | TGI (SF-295 CNS) | TGI (SF-539 CNS) | TGI (SK-MEL-2 melanoma) | TGI (SK-MEL-28 melanoma) | TGI (SK-MEL-5 melanoma) | TGI (SK-OV-3 ovarian) | TGI (SN12C renal) | TGI (SNB-19 CNS) | TGI (SNB-75 CNS) | TGI (SNB-78 CNS) | TGI (SR leukemia) | TGI (SW-620 colon) | TGI (TK-10 renal) | TGI (U251 CNS) | TGI (UACC-62 melanoma) | TGI (UO-31 renal)
84.3 µM: TGI (UACC-257 melanoma)

CCCCCC(=O)N[C@H]1CCc2cc(OC)c(OC)c(OC)c2-c2ccc(SC)c(=O)cc21
11.6 µM: TGI (786-0 renal)
33.4 µM: TGI (UACC-257 melanoma)
0.0484 µM: TGI (SK-MEL-5 melanoma)
0.0285 µM: TGI (COLO 205 colon)
32.9 µM: TGI (TK-10 renal)
49.7 µM: TGI (HOP-62 NSCLC)
11.2 µM: TGI (K-562 leukemia)
0.0755 µM and 0.131 µM: TGI (HT29 colon)
29.3 µM: TGI (UACC-62 melanoma)
0.0811 µM: TGI (SK-OV-3 ovarian)
> 100 µM: TGI (A549 NSCLC) | TGI (CAKI-1 renal) | TGI (DLD-1 colon) | TGI (EKVX NSCLC) | TGI (MOLT-4 leukemia) | TGI (OVCAR-4 ovarian) | TGI (OVCAR-5 ovarian) | TGI (SK-MEL-28 melanoma) | TGI (SNB-78 CNS) | TGI (SW-620 colon)
0.0549 µM: TGI (HCC-2998 colon)
0.0374 µM: TGI (SF-539 CNS)
24.1 µM: TGI (SF-268 CNS)
0.0913 µM and 0.0136 µM: TGI (HCT-116 colon)
0.0646 µM: TGI (HCT-15 colon)
inactive: GI50 (SK-MEL-28 melanoma) 25.1 µM
36 µM: TGI (ACHN renal)
17.3 µM: TGI (LXFL 529 NSCLC)
1.17 µM: TGI (HOP-92 NSCLC)
0.0354 µM: TGI (KM20L2 colon) | TGI (OVCAR-3 ovarian)
19 µM: TGI (SN12C renal)
0.0449 µM: TGI (A498 renal)
34.8 µM: TGI (CCRF-CEM leukemia)
50.7 µM: TGI (M19-MEL melanoma)
6.04 µM: TGI (XF 498 CNS)
